Source: patent publication US9949479B2 (priority 2015, dated 2018)
Values after ≈ are worked out from the molar mass of the structure shown.

Test system: Fusarium graminearum
Assay: microbe, parasite or virus in culture
Type: cell-based

SMILES: CC1(C)CCC(Cc2ccc(Cl)cc2)C1(O)Cn1cncn1 (stereo not drawn) [Metconazole]
- ED50 (F.g carbendazim-resistant strains): 0.113 µg/mL (≈ 0.353 µM)
- ED50 (F.g phenamacril-resistant strains): 0.115 µg/mL (≈ 0.36 µM)
- inhibition at 0.125 µg/mL (Fusarium graminearum, read-out: inhibitory effect on hyphal growth): > 50%
